Reference: US20050209278A1, “Piperidinyl- and piperazinyl-sulfonylmethyl hydroxamic acids and their use as protease inhibitors” (priority 2002, published 2005)

Legend:
[1] = target: T1, MMP-2 (Homo sapiens, UniProt P08253); experiment: In vitro MMP inhibition, Ki determination (fluorogenic substrate II); assay type: biochemical; details: value not in parenthesis; read-out: MMP-2 Ki
T1 construct: made in house; host or cells: MMP-2-transfected p2AHT2 cells
T1 sequence (P08253 110-660): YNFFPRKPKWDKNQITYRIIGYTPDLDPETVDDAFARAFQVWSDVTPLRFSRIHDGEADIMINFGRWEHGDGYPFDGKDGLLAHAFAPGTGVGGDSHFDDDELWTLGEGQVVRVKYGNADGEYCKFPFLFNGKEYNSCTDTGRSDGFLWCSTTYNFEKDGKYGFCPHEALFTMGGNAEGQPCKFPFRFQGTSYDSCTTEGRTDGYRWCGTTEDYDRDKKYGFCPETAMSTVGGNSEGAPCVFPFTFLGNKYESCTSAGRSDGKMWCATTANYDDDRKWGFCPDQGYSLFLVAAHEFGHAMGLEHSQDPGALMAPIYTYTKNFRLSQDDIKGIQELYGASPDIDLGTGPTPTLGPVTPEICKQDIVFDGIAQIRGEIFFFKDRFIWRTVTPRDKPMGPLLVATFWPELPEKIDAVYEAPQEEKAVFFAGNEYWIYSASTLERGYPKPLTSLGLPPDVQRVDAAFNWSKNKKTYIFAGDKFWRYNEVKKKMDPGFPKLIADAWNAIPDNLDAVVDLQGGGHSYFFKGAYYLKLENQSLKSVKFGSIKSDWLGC

[2] = target: T2, MMP-14 (Homo sapiens, UniProt P50281); experiment: as above; assay type: biochemical; details: value not in parenthesis; read-out: MMP-14 Ki
T2 construct: The catalytic domain enzyme was expressed in E. coli inclusion bodies, solubilized in urea; made in house
Outline: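 Apparent Ki was fitted with Morrison's equation from reaction rates at a single low enzyme level. Enzyme was APMA- or trypsin-activated refolded MMP-14 catalytic domain, buffered at pH 7.5 with 10 mM CaCl2.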

Ki [1]	Ki [2]	SMILES
0.00928 µM	> 10 µM	CCCCOc1ccc(N2CCN(S(=O)(=O)C3(C(=O)NO)CCN(c4ccc(C#N)cc4)CC3)CC2)cc1 [Example 225]
0.0104 µM	> 10 µM	CCCCOc1ccc(N2CCN(S(=O)(=O)C3(C(=O)NO)CCN(c4cccc(C)c4)CC3)CC2)cc1 [Example 226]
0.00247 µM	1.68 µM	COCCSc1ccc(N2CCN(S(=O)(=O)C3(C(=O)NO)CCOCC3)CC2)cc1 [Example 227]
0.00267 µM	7.88 µM	CCCCOc1ccc(N2CCN(S(=O)(=O)C3(C(=O)NO)CCN(c4ccc(OC)c(OC)c4)CC3)CC2)cc1 [Example 229]
0.00046 µM	2.51 µM	CCCCOc1ccc(N2CCN(S(=O)(=O)C3(C(=O)NO)CCN(C(=O)N4CCN(C)CC4)CC3)CC2)cc1 [Example 230]
0.00132 µM	1.53 µM	CCCCOc1ccc(N2CCN(S(=O)(=O)C3(C(=O)NO)CCN(C(=O)N4CCCC4)CC3)CC2)cc1 [Example 231]
0.0265 µM	3.51 µM	CCCCOc1ccc(N2CCN(S(=O)(=O)C3(C(=O)NO)CCSCC3)CC2)cc1 [Example 232]
0.000771 µM	3.08 µM	CCCCOc1ccc(N2CCN(S(=O)(=O)C3(C(=O)NO)CCN(CCN4CCOCC4)CC3)CC2)cc1 [Example 233]
0.00316 µM	2.88 µM	CCOCCSc1ccc(N2CCN(S(=O)(=O)C3(C(=O)NO)CCOCC3)CC2)cc1 [Example 234]
0.00076 µM	3.96 µM	CCCCOc1ccc(N2CCN(S(=O)(=O)C3(C(=O)NO)CCN(CCN(CC)CC)CC3)CC2)cc1 [Example 235]
0.00258 µM	> 10 µM	CCCCCc1ccc(N2CCN(S(=O)(=O)C3(C(=O)NO)CCN(S(=O)(=O)N(C)C)CC3)CC2)cc1 [Example 236]
0.00203 µM	7.12 µM	CCCCCc1ccc(N2CCN(S(=O)(=O)C3(C(=O)NO)CCN(S(C)(=O)=O)CC3)CC2)cc1 [Example 237]
0.00163 µM	6.04 µM	CCCCOc1ccc(N2CCN(S(=O)(=O)C3(C(=O)NO)CCN(CCCC(F)(F)F)CC3)CC2)cc1 [Example 238]
0.00054 µM	1.05 µM	CCCCCc1ccc(N2CCN(S(=O)(=O)C3(C(=O)NO)CCN(C(C)=O)CC3)CC2)cc1 [Example 239]
0.000536 µM	3.96 µM	CCCCOc1ccc(N2CCN(S(=O)(=O)C3(C(=O)NO)CCN(C(=O)NC(C)(C)C)CC3)CC2)cc1 [Example 240]
0.00364 µM	> 10 µM	CCCCOc1ccc(N2CCN(S(=O)(=O)C3(C(=O)NO)CCN(c4ccc(N(C)C)cc4)CC3)CC2)cc1 [Example 241]
0.000591 µM	2.39 µM	CCCCOc1ccc(N2CCN(S(=O)(=O)C3(C(=O)NO)CCN(C(=O)N(CC)CC)CC3)CC2)cc1 [Example 242]
0.00034 µM	2.05 µM	CCCCOc1ccc(N2CCN(S(=O)(=O)C3(C(=O)NO)CCN(C(=O)N4CCCCC4)CC3)CC2)cc1 [Example 243]
0.00157 µM	5.31 µM	CCCCOc1ccc(N2CCN(S(=O)(=O)C3(C(=O)NO)CCN(C(=O)N(C(C)C)C(C)C)CC3)CC2)cc1 [Example 244]
0.000475 µM	2.81 µM	CCCCOc1ccc(N2CCN(S(=O)(=O)C3(C(=O)NO)CCN(Cc4nccn4C)CC3)CC2)cc1 [Example 245]
0.0012 µM	5.95 µM	CCCCOc1ccc(N2CCN(S(=O)(=O)C3(C(=O)NO)CCN(Cc4ccc(C)o4)CC3)CC2)cc1 [Example 246]
0.000686 µM	1.98 µM	CCCCOc1ccc(N2CCN(S(=O)(=O)C3(C(=O)NO)CCN(Cc4ncc[nH]4)CC3)CC2)cc1 [Example 247]
0.00498 µM	> 10 µM	CCCCOc1ccc(N2CCN(S(=O)(=O)C3(C(=O)NO)CCN(c4ccc(OC)cc4)CC3)CC2)cc1 [Example 249]
